This passage reports inhibition results from patent publication US20080181866A1, “Amido Anti-viral Compounds” (Genelabs Technologies, Inc., priority 2006, published 2008).

For orientation: inhibition means the change of the read-out against control, counted positive when it falls. A low value points to a response near the control.

This assay concerns HCV replication. The experiment in a line: HCV replicon assay (luciferase) in ET (Huh-lucubineo-ET) cell line. It is filed as cell-based. As to conditions: Hepatitis C virus, tested at 5 μM; ET replicon cells; luciferase activity measured 48-72 hours later; relative to no compound control. Put shortly: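 Huh-lucubineo-ET cells stably carry a subgenomic replicon with a firefly luciferase–ubiquitin–neo fusion and adaptive NS3-5B mutations; they were seeded 24 h before compound addition (0.1 nM–50 μM, 0.5% DMSO). Luciferase was read 48–72 h later as % inhibition versus no-compound control, with parallel WST-1 cytotoxicity. EC50 and TC50 came from 10-point 2-fold dilutions fitted to a Hill equation.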
(A replicon is a self-replicating genome or part of one, used to study replication in cells.)
With `COC(=O)CCCCC1SC[C@@H](C(=O)Nc2nc(-c3ccc(C(=O)NC4CC4)cc3)cs2)N1C(=O)OCc1ccccc1` (stereo partly drawn) [Compound 7108, 4-[4-(4-Cyclopropylcarbamoyl-phenyl)-thiazol-2-ylcarbamoyl]-2-(4-methoxycarbonyl-butyl)-thiazolidine-3-carboxylic acid benzyl ester], at 5 µM the inhibition was 99.9%. The result for `O=C(O)CCCCC1SC[C@@H](C(=O)Nc2nc(-c3ccc(C(=O)NC4CC4)cc3)cs2)N1C(=O)OCc1ccccc1` (stereo in doubt) [Compound 7088, 2-(4-Carboxy-butyl)-4-[4-(4-cyclopropylcarbamoyl-phenyl)-thiazol-2-ylcarbamoyl]-thiazolidine-3-carboxylic acid benzyl ester] reads 99.8%. Compound `Cn1ccnc1C1SC[C@@H](C(=O)Nc2nc(-c3ccc(C(=O)NC4CC4)cc3)cs2)N1C(=O)OCc1ccccc1` (mixture of isomers) [Compound 7053, (R)-4-[4-(4-Cyclopropylcarbamoyl-phenyl)-thiazol-2-ylcarbamoyl]-2-(1-methyl-1H-imidazol-2-yl)-thiazolidine-3-carboxylic acid benzyl ester] showed an inhibition at 5 µM of 99.6%. The result for `CC(=O)c1cccc(C2SC[C@@H](C(=O)Nc3nc(-c4ccc(C(=O)NC5CC5)cc4)cs3)N2C(=O)OCc2ccccc2)c1` (stereo partly drawn) [Compound 7120, 2-(3-Acetyl-phenyl)-4-[4-(4-cyclopropylcarbamoyl-phenyl)-thiazol-2-ylcarbamoyl]-thiazolidine-3-carboxylic acid benzyl ester] reads 100%. The result for `O=C(Nc1cccnc1)c1ccc(-c2csc(NC(=O)[C@@H]3COC4(CCOCC4)N3C(=O)OCc3ccccc3)n2)cc1` [Compound 7140, 3-{4-[4-(Pyridin-3-ylcarbamoyl)-phenyl]-thiazol-2-ylcarbamoyl}-1,8-dioxa-4-aza-spiro[4.5]decane-4-carboxylic acid benzyl ester] reads 99.9%; that for `CC(C)(C)NC(=O)c1ccc(-c2csc(NC(=O)[C@@H]3CSC(c4ccncc4)N3C(=O)OCc3ccccc3)n2)cc1` (stereo partly drawn) [Compound 7041, 4-[4-(4-tert-Butyl-carbamoyl-phenyl)-thiazol-2-ylcarbamoyl]-2-pyridin-4-yl-thiazolidine-3-carboxylic acid benzyl ester], 100%.
